From article PMC3081938 (Journal of natural products, 2011)
Entries after “also recorded” stand apart in the source; their conditions may differ.

Experiments:
KOP receptors [1] = target: T1, KOP receptors (Homo sapiens, UniProt P41145); assay: biochemical; type: biochemical
5-HT2A receptor = settings: cited from earlier work
[2] = system: locomotor effects of cocaine; settings: rats; cited from earlier work
[3] = system: opioid mediated antinociceptive properties; settings: rats; cited from earlier work
κ opioid (KOP) receptors = settings: cited from earlier work
DOP receptors = DOP receptors (Homo sapiens, UniProt P41143); type: binding
KOP receptors [4] = target: T1, KOP receptors; assay: biochemical; type: binding

T1 sequence (P41145 whole entry): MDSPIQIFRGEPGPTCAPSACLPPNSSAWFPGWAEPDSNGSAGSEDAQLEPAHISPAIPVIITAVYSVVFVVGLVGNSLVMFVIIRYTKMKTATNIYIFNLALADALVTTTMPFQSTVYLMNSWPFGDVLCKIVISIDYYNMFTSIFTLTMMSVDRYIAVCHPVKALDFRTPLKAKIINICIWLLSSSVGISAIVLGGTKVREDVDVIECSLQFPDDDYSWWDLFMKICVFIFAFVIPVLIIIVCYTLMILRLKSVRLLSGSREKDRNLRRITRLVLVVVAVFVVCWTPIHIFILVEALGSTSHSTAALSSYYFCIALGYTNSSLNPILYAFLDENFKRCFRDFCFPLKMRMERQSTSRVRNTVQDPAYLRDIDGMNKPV
DOP receptors, sequence (P41143 whole entry): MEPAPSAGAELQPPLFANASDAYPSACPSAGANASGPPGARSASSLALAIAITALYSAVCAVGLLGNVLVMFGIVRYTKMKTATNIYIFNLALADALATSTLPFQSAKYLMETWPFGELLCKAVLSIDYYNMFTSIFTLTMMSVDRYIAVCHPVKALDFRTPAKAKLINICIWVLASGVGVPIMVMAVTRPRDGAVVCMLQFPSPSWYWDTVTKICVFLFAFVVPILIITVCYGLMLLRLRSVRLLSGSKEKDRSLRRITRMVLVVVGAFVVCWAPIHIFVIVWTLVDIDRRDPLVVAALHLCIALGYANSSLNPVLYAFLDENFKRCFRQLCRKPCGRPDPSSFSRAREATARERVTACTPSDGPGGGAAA

For `COC(=O)[C@@H]1C[C@H](OC(C)=O)C(=O)[C@H]2[C@@]1(C)CC[C@H]1C(=O)O[C@H](c3ccoc3)C[C@]21C` [Compound 1, (2S,4aR,6aR,7R,9S,10aS,10bR)-methyl 9-acetoxy-2-(furan-3-yl)-6a,10b-dimethyl-4,10-dioxo-dodecahydro-1H-benzo[f]isochromene-7-carboxylate], the “KOP ED50 ± SD” value (KOP receptors [1]) is listed as 40 nM, the “Affinity for the 5-HT2A receptor” value (5-HT2A receptor) is listed as “does not have any affinity” and the “Effect on locomotor effects of cocaine” value [2] is listed as “can block the locomotor effects of cocaine”. The Antinociceptive properties [3] was “opioid mediated antinociceptive properties” and the “Agonism at κ opioid (KOP) receptors” value (κ opioid (KOP) receptors) was “full agonist”.
With `CCOC(=O)C1=C(C(=O)OCC)C2OC1C=C2[C@@H]1C[C@]2(C)[C@H]3C(=O)[C@@H](OC(C)=O)C[C@@H](C(=O)OC)[C@]3(C)CC[C@H]2C(=O)O1` (stereo partly drawn) [Compound 5, Diethyl 5-((2S,4aR,6aR,7R,9S,10aS,10bR)-9-acetoxy-7-(methoxycarbonyl)-6a,10b-dimethyl-4,10-dioxododecahydro-1H-benzo[f]isochromen-2-yl)-7-oxabicyclo[2.2.1]hepta-2,5-diene-2,3-dicarboxylate] the EC50 (KOP receptors [1]) was 2150 nM, the “Efficacy at KOP receptors (in words)” value (KOP receptors [1]) was “full agonists; also recorded: high efficacy” and the “Fold increase in affinity for DOP receptors” value (DOP receptors) was “over 4 fold”.
With `COC(=O)C1=C(C(=O)OC)C2OC1C=C2[C@@H]1C[C@]2(C)[C@H]3C(=O)[C@@H](OC(C)=O)C[C@@H](C(=O)OC)[C@]3(C)CC[C@H]2C(=O)O1` (stereo partly drawn) [Compound 6, Dimethyl 5-((2S,4aR,6aR,7R,9S,10aS,10bR)-9-acetoxy-7-(methoxycarbonyl)-6a,10b-dimethyl-4,10-dioxododecahydro-1H-benzo[f]isochromen-2-yl)-7-oxabicyclo[2.2.1]hepta-2,5-diene-2,3-dicarboxylate] the EC50 (KOP receptors [1]) was 980 ± 200 nM and the “Efficacy at KOP receptors (in words)” value (KOP receptors [1]) was “full agonist”.
In the case of `COC(=O)[C@@H]1C[C@H](OC(C)=O)C(=O)[C@H]2[C@@]1(C)CC[C@H]1C(=O)O[C@H](C3=CC4OC3C3C5OC(c6c5c5ccccc5c(=O)c5ccccc65)C43)C[C@]21C` (stereo partly drawn) [Compound 11, (2S,4aR,6aR,7R,9S,10aS,10bR)-Methyl 9-acetoxy-2-(8,8a,9,12,12a,13-hexahydro-8,13:9,12-diepoxy-5H-dibenzo[3,4:6,7]cyclohept[1,2]naphthanen-5-on-10-yl)-6a,10b-dimethyl-4,10-dioxododecahydro-1H-benzo[f]isochromene-7-carboxylate], the “Ki ± SD (nM) DOP” value (DOP receptors) is reported as “no appreciable affinity”.
With `COC(=O)[C@@H]1C[C@H](OC(C)=O)C(=O)[C@H]2[C@@]1(C)CC[C@H]1C(=O)O[C@H](C3=CC4OC3C3C4C4OC3(C)c3c4c4ccccc4c(=O)c4ccccc34)C[C@]21C` (stereo partly drawn) [Compound 12, (2S,4aR,6aR,7R,9S,10aS,10bR)-Methyl 9-acetoxy-2-(8,8a,9,12,12a,13-hexahydro-8-methyl-8,13:9,12-diepoxy-5H-dibenzo[3,4:6,7]cyclohept[1,2]naphthanen-5-on-10-yl)-6a,10b-dimethyl-4,10-dioxododecahydro-1H-benzo[f]isochromene-7-carboxylate] the “Fold increase in affinity for KOP receptors” value (KOP receptors [4]) was 44 fold.
With `COC(=O)c1ccc([C@@H]2C[C@]3(C)[C@H]4C(=O)[C@@H](OC(C)=O)C[C@@H](C(=O)OC)[C@]4(C)CC[C@H]3C(=O)O2)cc1C(=O)OC` [Compound 14, Dimethyl 4-((2S,4aR,6aR,7R,9S,10aS,10bR)-9-acetoxy-7-(methoxycarbonyl)-6a,10b-dimethyl-4,10-dioxododecahydro-1H-benzo[f]isochromen-2-yl)phthalate] the Ki (KOP receptors [4]) was 228 nM.
Work on `COC(=O)[C@@H]1C[C@H](OC(C)=O)C(=O)[C@H]2[C@@]1(C)CC[C@H]1C(=O)O[C@H](c3ccc4ccccc4c3)C[C@]21C` [Compound 15, (2S,4aR,6aR,7R,9S,10aS,10bR)-methyl 9-acetoxy-6a,10b-dimethyl-2-(naphthalen-2-yl)-4,10-dioxododecahydro-1H-benzo[f]isochromene-7-carboxylate] yielded a Ki (KOP receptors [4]) of 286 nM.
